Assay results: US11364275B2, “Linear lipopeptide paenipeptins and methods of using the same” (priority 2017, dated 2022)
Like-named read-outs stand apart in the source and are kept apart here. Where a SMILES comes first, the peptide text is derived from it. [ ]: non-standard residue; d: D form. The star is where a group is joined. ξ: configuration not given here. Heptanoyl = CCCCCCC(=O)*; Octanoyl = CCCCCCCC(=O)*; Orn = NCCC[C@H](N)C(=O)O; Dab = NCC[C@H](N)C(=O)O; ξDab = NCCC(N)C(=O)O; Bz = O=C(c1ccccc1)*

Legend:
[1] = system: Acinetobacter baumannii ATCC 19606; assay type: cell-based
[2] = system: Enterococcus faecium ATCC 19434; assay type: cell-based
[3] = system: Staphylococcus aureus ATCC 29213; assay type: cell-based
Description: (§2) The minimum inhibitory concentration (MIC) of paenipeptin analogues was determined using the broth microdilution method (Wirker, M. A. Methods for Dilution Antimicrobial Susceptibility Tests for Bacteria that Grow Aerobically: Approved Standard M07-A8; Clinical and Laboratory Standards Institute, Wayne, Pa., 2009). Seven reference strains (Acinetobacter baumannii ATCC 19606, Escherichia coli ATCC 25922, Klebsiella pneumoniae ATCC 13883, Pseudomonas aeruginosa ATCC 27853, Enterococcus faecium ATCC 19434, Staphylococcus aureus ATCC 29213 and methicillin-resistant S. aureus ATCC 43300) were subjected to MIC testing.
(§3) Paenipeptin analogues were two-fold diluted in tryptic soy broth (TSB; Becton Dickinson) and mixed with an equal volume of bacterial suspensions in TSB containing approximately 1.5×10^5 colony-forming units (CFU)/mL in a clear UV-sterilized 96-well microtiter plate (NBS, Corning Inc., Corning, N.Y.). […] The microtiter plate was incubated at 37° C. for 18-20 h.

[4] = system: methicillin-resistant S. aureus ATCC 43300; assay type: cell-based, Staphylococcus aureus
Description: as §2, §3

[5] = system: rabbit red blood cells; assay: Hemolytic activity; assay type: cell-based; conditions: for Hemolysis: relative to Triton X-100
Description: Hemolytic activity was evaluated using defibrinated rabbit blood in a 96-well plate as described previously. A nonionic surfactant Triton X-100, which is capable of lysing red blood cells (RBCs), was used at 0.1% as a positive control. Briefly, rabbit blood (Hardy Diagnostics, Santa Maria, Calif.) was diluted with phosphate buffered saline (PBS; pH 7.2) at a 1:19 ratio (v/v) and free hemoglobin was removed by washing RBCs and centrifugation four times at 1,000×g at 4° C. for 5 min. Aliquots (50 μL) of washed RBCs were incubated with 150 μL two-fold dilutions of paenipeptin analogues at final concentrations of 16-128 μg/mL at 37° C. for 30 min in a microtiter plate (NBS, Corning Inc.). After incubation, treated RBCs were gently mixed by repeated pipetting. Aliquots (20 μL) of the cell suspension were mixed with 200 μL PBS in a new 96-well plate and centrifuged at 2,204×g for 10 min. The supernatant was transferred to a new 96-well plate for absorbance measurement at 415 nm using a Cell Imaging Multimode Reader (Cytation 3, BioTek; Winooski, Vt.). The percent hemolysis observed after exposure to each paenipeptin analogue was calculated relative to Triton X-100.

[6] = system: Acinetobacter baumannii ATCC 19606; assay: MIC of antibiotics with or without paenipeptin analogues (potentiation); assay type: cell-based; conditions: A. baumannii ATCC 19606; for Sensitization factor (rifampicin): MIC without / with 4 μg/mL paenipeptin; for MIC of antibiotic at 0 μg/ml paenipeptin analogue: antibiotic alone
Text: (§1) Gram-negative bacteria, including Acinetobacter and Klebsiella, are intrinsically resistant to the hydrophobic antibiotic rifampicin.

[7] = system: Klebsiella pneumoniae ATCC 13883; assay: as above; assay type: cell-based; conditions: K. pneumoniae ATCC 13883; for Sensitization factor (rifampicin): MIC without / with 4 μg/mL paenipeptin; for MIC of antibiotic at 0 μg/ml paenipeptin analogue: antibiotic alone
Text: as §1

[8] = system: Escherichia coli ATCC 25922; assay type: cell-based
Description: as §2, §3

[9] = system: Klebsiella pneumoniae ATCC 13883; assay type: cell-based
[10] = system: Pseudomonas aeruginosa ATCC 27853; assay type: cell-based
Description: as §2, §3

| Compound | MIC ([1]; ATCC 19606) [µg/mL] | MIC ([2]; ATCC 19434) [µg/mL] | MIC ([3]; ATCC 29213) [µg/mL] | MIC ([4]; ATCC 43300) [µg/mL] | Hemolysis ([5]; 16 μg/mL) [%] | Hemolysis ([5]; 32 μg/mL) [%] | Hemolysis ([5]; 64 μg/mL) [%] | Hemolysis ([5]; 128 μg/mL) [%] | MIC of rifampicin at 2 μg/mL of paenipeptin analogue [6] [μg/ml] | Sensitization factor (rifampicin) [6] | MIC of rifampicin at 2 μg/mL of paenipeptin analogue [7] | MIC of rifampicin at 4 μg/mL of paenipeptin analogue [7] | Sensitization factor (rifampicin) [7] | MIC of antibiotic at 0 μg/ml paenipeptin analogue [6] [μg/ml] | MIC of antibiotic at 0 μg/ml paenipeptin analogue [7] [μg/ml] | MIC ([9]; ATCC 13883) [µg/mL] | MIC of rifampicin at 4 μg/mL of paenipeptin analogue [6] | further results |
| --- | --- | --- | --- | --- | --- | --- | --- | --- | --- | --- | --- | --- | --- | --- | --- | --- | --- | --- |
| CCCCCCC(=O)N[C@@H](CCN)C(=O)N[C@H](C(=O)N[C@@H](CCN)C(=O)N[C@H](Cc1ccccc1)C(=O)N[C@@H](CC(C)C)C(=O)N[C@@H](CCN)C(=O)N[C@@H](C(=O)N[C@@H](CC(C)C)C(=O)N[C@@H](CO)C(N)=O)C(C)C)[C@@H](C)CC [Analogue 3] (Heptanoyl-[Dab]I[Dab][dF]L[Dab][dV]LS-NH2) | >32 | >32 | >32 | >32 | 0.18 ± 0.54 | 0.78 ± 0.30 | 1.18 ± 0.68 | 1.77 ± 0.81 | 0.0078 | 4,096 | 0.0039 μg/ml | <0.00098-0.00195 μg/ml |  |  |  |  |  | hemolytic activity (in words) ([5]; 128 μg/mL): little hemolysis |
| CC[C@H](C)[C@H](NC(=O)[C@H](CCN)NC(=O)c1ccccc1)C(=O)N[C@@H](CCN)C(=O)N[C@H](Cc1ccccc1)C(=O)N[C@@H](CC(C)C)C(=O)N[C@@H](CCN)C(=O)N[C@@H](C(=O)N[C@@H](CC(C)C)C(=O)N[C@@H](CO)C(N)=O)C(C)C [Analogue 14] (Bz-[Dab]I[Dab][dF]L[Dab][dV]LS-NH2) |  |  |  |  | 0.22 ± 0.17 | 0.71 ± 0.82 | 1.14 ± 1.05 | 0.70 ± 0.34 | 0.03125 | 2,048-4,096 | 0.0078 μg/ml | 0.00195-0.0039 μg/ml | 4,096-8,192 |  |  |  |  | MIC ([1]; A. baumannii ATCC 19606, TSB): >32 µg/mL; MIC ([8]; E. coli ATCC 25922, TSB): 16 to 32 µg/mL; MIC ([9]; K. pneumoniae ATCC 13883, TSB): >32 µg/mL; MIC ([10]; P. aeruginosa ATCC 27853, TSB): 8 to 32 µg/mL; MIC ([2]; E. faecium ATCC 19434, TSB): >32 µg/mL; MIC ([3]; S. aureus ATCC 29213, TSB): >32 µg/mL; MIC ([4]; S. aureus ATCC 43300, TSB): >32 µg/mL |
| CC[C@H]1OC(=O)[C@H](C)[C@@H](O[C@H]2C[C@@](C)(OC)[C@@H](O)[C@H](C)O2)[C@H](C)[C@@H](O[C@@H]2O[C@H](C)C[C@H](N(C)C)[C@H]2O)[C@](C)(O)C[C@@H](C)C(=O)[C@H](C)[C@@H](O)[C@]1(C)O [Erythromycin, erythromycin, reference compound] |  |  |  |  |  |  |  |  |  |  |  |  |  | 32 | >32 |  |  |  |
| CCCCCCCC(=O)N[C@@H](CCN)C(=O)NC(CCN)C(=O)N[C@@H](CCN)C(=O)N[C@H](Cc1ccccc1)C(=O)N[C@@H](CC(C)C)C(=O)N[C@@H](CCN)C(=O)N[C@@H](C(=O)N[C@@H](CC(C)C)C(=O)N[C@@H](CCN)C(N)=O)C(C)C (some centres unmarked) [Analogue 10] (Octanoyl-[Dab][ξDab][Dab][dF]L[Dab][dV]L[Dab]-NH2) | >32 | >32 | ≥32 | >32 | 0.37 ± 0.62 | 0.38 ± 0.62 | 0.41 ± 0.53 | 0.80 ± 0.40 |  | 256-512 | 0.0625-0.125 μg/ml | 0.0625 μg/ml | 256 |  |  | >32 | 0.0313-0.0625 μg/ml | MIC ([8]; ATCC 25922): >32 µg/mL; MIC ([10]; ATCC 27853): 16 to 32 µg/mL |
| CN[C@H](CC(C)C)C(=O)N[C@H]1C(=O)N[C@@H](CC(N)=O)C(=O)N[C@H]2C(=O)N[C@H]3C(=O)N[C@H](C(=O)N[C@H](C(=O)O)c4cc(O)cc(O)c4-c4cc3ccc4O)[C@H](O)c3ccc(c(Cl)c3)Oc3cc2cc(c3O[C@@H]2O[C@H](CO)[C@@H](O)[C@H](O)[C@H]2O[C@H]2C[C@](C)(N)[C@H](O)[C@H](C)O2)Oc2ccc(cc2Cl)[C@H]1O [Vancomycin, vancomycin, reference compound] |  |  |  |  |  |  |  |  |  |  |  |  |  | >32 | >32 |  |  |  |
| CCCCCCCC(=O)N[C@@H](CCCN)C(=O)N[C@H](C(=O)N[C@@H](CCCN)C(=O)N[C@H](Cc1ccccc1)C(=O)N[C@@H](CC(C)C)C(=O)N[C@@H](CCCN)C(=O)N[C@@H](C(=O)N[C@@H](CC(C)C)C(=O)N[C@@H](CO)C(N)=O)C(C)C)[C@@H](C)CC [Analogue 11] (Octanoyl-[Orn]I[Orn][dF]L[Orn][dV]LS-NH2) |  | >32 | >32 |  | 0.86 ± 0.72 | 0.44 ± 0.30 | 0.69 ± 0.64 | 1.12 ± 0.47 | 0.0625 | 512-1,024 |  | 0.0078-0.0156 μg/ml | 1,024-2,048 |  |  | >32 | 0.0156-0.0313 μg/ml |  |
| CCCCCCC(=O)N[C@@H](CCN)C(=O)N[C@H](C(=O)N[C@@H](CCN)C(=O)N[C@H](Cc1ccccc1)C(=O)N[C@@H](CC(C)C)C(=O)N[C@@H](CCN)C(=O)N[C@@H](C(=O)N[C@@H](CC(C)C)C(=O)N[C@@H](CO)C(N)=O)C(C)C)C(C)C [Analogue 2] (Heptanoyl-[Dab]V[Dab][dF]L[Dab][dV]LS-NH2) | >32 | >32 | >32 | >32 | −0.17 ± 0.19 | 0.32 ± 0.74 | 0.79 ± 0.63 | 0.95 ± 0.45 | 0.125 | 256-512 | 0.0156 μg/ml | 0.0039 μg/ml | 4,096 |  |  | >32 | 0.0313-0.0625 μg/ml |  |
| CCCCCCC(=O)N[C@@H](CCN)C(=O)N[C@@H](Cc1ccccc1)C(=O)N[C@@H](CCN)C(=O)N[C@H](Cc1ccccc1)C(=O)N[C@@H](CC(C)C)C(=O)N[C@@H](CCN)C(=O)N[C@@H](C(=O)N[C@@H](CC(C)C)C(=O)N[C@@H](CO)C(N)=O)C(C)C [Analogue 4] (Heptanoyl-[Dab]F[Dab][dF]L[Dab][dV]LS-NH2) |  | >32 | ≥32 |  | 0.28 ± 1.11 | 0.49 ± 1.22 | 0.60 ± 1.35 | 1.28 ± 1.65 |  |  |  |  |  |  |  |  |  | MIC ([8]; ATCC 25922): 1 to 4 µg/mL; MIC ([10]; ATCC 27853): 2 to 4 µg/mL |
| CC1(C)S[C@@H]2[C@H](NC(=O)[C@H](N)c3ccccc3)C(=O)N2[C@H]1C(=O)O [Ampicillin, ampicillin, reference compound] |  |  |  |  |  |  |  |  |  |  |  |  |  | >32 | 32 |  |  |  |
